Test results taken from patent publication US8642012B2, “Methods of treatment using ammonia-scavenging drugs” (Hyperion Therapeutics, Inc., priority 2008, dated 2014).
“Also recorded” adds a separate entry of the source. Blank lines part the entries; values can stand above or below the compound they belong to.

Columns and labels:
[1] = HPN-100 in subjects with cirrhosis and healthy adults: urinary PAGN excretion; format: in vivo, human; details: for Molar % of dose ammonia scavenged, Mean (SD): after dosing on day 15 (0-48 hours)
Method: (§1) To determine its pharmacokinetic (PK) and pharmacodynamic (PD) profile in patients with liver disease, clinical testing was conducted in which HPN-100 was administered orally as a single dose (100 mg/kg/day on day 1), and twice daily for 7 consecutive days (200 mg/kg/day on days 8 through 14, in two doses of 100 mg/kg per dose), to subjects with hepatic impairment with cirrhosis (Child-Pugh scores of A, B, or C) and to a gender and age-matched control group of healthy adults with normal hepatic function. On day 15, subjects received a single dose of HPN-100 (100 mg/kg). PK blood samples were taken pre-dose, at 15 and 30 minutes post-dose, and at 1, 1.5, 2, 3, 4, 6, 8, 12, and 24 hours post-dose on days 1, 8, and 15, and at 48 hours after dosing on days 1 and 15. On days 9-14, blood samples were taken pre-morning dose and at 2 hours post-morning dose. Urine was collected 0-4, 4-8, 8-12, and 12-24 hours post-dose on days 1, 8, and 15, and at 24-48 hours post-dose on days 1 and 15.

[2] = HPN-100 in subjects with cirrhosis (Child-Pugh A, B, C) and healthy adults: plasma PK; format: in vivo, human
Method: as §1

venous ammonia = experiment: Adult UCD patients, sodium PBA vs HPN-100: venous ammonia pharmacodynamics; format: in vivo, human; details: for Venous ammonia Cmaxss, Mean / Venous ammonia Cmaxss, Median / Venous ammonia TN-AUC, Mean / Venous ammonia TN-AUC, Median: N 10 UCD subjects; for Venous ammonia Cmaxss, Mean / Venous ammonia Cmaxss, Median / Venous ammonia TN-AUC, Mean / Venous ammonia TN-AUC, Median / Venous ammonia Cmaxss / Venous ammonia TN-AUC: seven days of dosing, steady state; for TN-AUC (NH3): plasma ammonia; for NH3: Total AUC / NH3 exposure: DAY (hours 6-12) / NH3 exposure: NIGHT (hours 12-24) / NH3 Cmax: equimolar rates (n=10); for NH3 Cmax: in µmol/L
From the text: (§2) Subjects stayed on the 100% HPN-100 dose for one week and were then re-admitted to the study unit for repeated PK (Visit 11-1), ammonia and urine collections.

[3] = Adult UCD patients, sodium PBA vs HPN-100: safety and patient preference; format: in vivo, human; details: UCD patients (n=10)
From the text: as §2

[4] = Adult UCD patients switched from sodium PBA to equimolar HPN-100: plasma PK at steady state; format: in vivo, human
From the text: as §2

[5] = ADME study of radio labeled sodium PBA or HPN-100 in cynomolgous monkeys; format: in vivo; details: 600 mg/kg single dose
From the text: These monkeys were chosen because, like humans (and unlike most other species), they metabolize PAA to PAGN and thus provide a useful model for testing prodrugs of PAA.

[6] = Overall findings across the clinical studies (conversion to urinary PAGN, tolerability); format: in vivo, human
From the text: These are followed by a biological explanation for the findings.

[7] = Adult UCD patients, sodium PBA vs HPN-100: urinary PAGN excretion; format: in vivo, human; details: for PAGN excretion: equimolar rates (n=10)
From the text: as §2

[8] = Single dose PK in healthy adults: plasma PBA, PAA, PAGN; format: in vivo, human; details: healthy volunteers, single dose 3 g/m^2/day PBA mole equivalent
Method: To assess its pharmacokinetic (PK) and pharmacodynamic (PD) profile, HPN-100 was administered as a single dose to 24 healthy adults. Pharmacokinetic samples were taken pre-dose and at 15 and 30 minutes post-dose and 1, 1.5, 2, 3, 4, 6, 8, 12, 24, and 48 hours post-dose.
Plasma levels of PAA, PBA, and PAGN were monitored periodically for 12-24 hours by known methods.

[9] = PK/PD modeling (NONMEM VI) of plasma and urinary metabolite data from the clinical studies; design: species or system human
[10] = healthy adults; single dose; urine collected to 24 hours
[11] = individual UCD patients; Brusilow 1991, Brusilow and Finkelstien 1993; cited from earlier work
[12] = UCD patients, equimolar dosages
[13] = UCD patients, not statistically significant
[14] = plasma, UCD subjects, multiple dose, PBA mole equivalent
[15] = steady state, UCD patients N = 10, arithmetic mean

Alternative metabolites PAG, PBG and PBGN in plasma ([2]; all plasma samples, all subject groups): below the limit of quantification
Intact HPN-100 in systemic circulation or in excretions [5]: essentially no HPN-100
PAGN excretion [7]: Comparable
SMILES: O=C(CCCc1ccccc1)OCC(COC(=O)CCCc1ccccc1)OC(=O)CCCc1ccccc1 [HPN-100, glyceryl tri-[4-phenylbutyrate]]
Effect of hepatic impairment on ammonia-scavenging ability ([1]; Child-Pugh groups vs healthy volunteers): no significant effect
Molar % of dose ammonia scavenged, Mean (SD) ([1]; Child-Pugh A (8)): 159.2 (60.9) Molar %
Molar % of dose ammonia scavenged, Mean (SD) ([1]; Child-Pugh B (8)): 116.3 (58.3) Molar %
Molar % of dose ammonia scavenged, Mean (SD) ([1]; Child-Pugh C (8)): 169.9 (130.1) Molar %
Molar % of dose ammonia scavenged, Mean (SD) ([1]; Healthy Adults (8)): 137.2 (43.9) Molar %
PK and PD in fed versus fasted state ([2]; after fasting (day 1) vs with a meal (day 8)): no PK or PD differences; also recorded: indistinguishable
Venous ammonia Cmaxss, Mean (venous ammonia): 56.3 µmol/L
Venous ammonia Cmaxss, Median (venous ammonia): 60.0 µmol/L
Venous ammonia TN-AUC, Mean (venous ammonia): 26.1 µmol/L
Venous ammonia TN-AUC, Median (venous ammonia): 22.3 µmol/L
Venous ammonia Cmaxss (venous ammonia; Subject 1001): 63.0 µmol/L
Venous ammonia TN-AUC (venous ammonia; Subject 1001): 19.8 µmol/L
Venous ammonia Cmaxss (venous ammonia; Subject 1002): 31.0 µmol/L
Venous ammonia TN-AUC (venous ammonia; Subject 1002): 19.3 µmol/L
Venous ammonia Cmaxss (venous ammonia; Subject 1004): 106 µmol/L
Venous ammonia TN-AUC (venous ammonia; Subject 1004): 35.1 µmol/L
Venous ammonia Cmaxss (venous ammonia; Subject 1006): 13.0 µmol/L
Venous ammonia TN-AUC (venous ammonia; Subject 1006): 8.30 µmol/L
Venous ammonia Cmaxss (venous ammonia; Subject 2001): 33.0 µmol/L
Venous ammonia TN-AUC (venous ammonia; Subject 2001): 22.7 µmol/L
Venous ammonia Cmaxss (venous ammonia; Subject 2003): 74.0 µmol/L
Venous ammonia TN-AUC (venous ammonia; Subject 2003): 21.1 µmol/L
Venous ammonia Cmaxss (venous ammonia; Subject 3002): 36.0 µmol/L
Venous ammonia TN-AUC (venous ammonia; Subject 3002): 21.9 µmol/L
Venous ammonia Cmaxss (venous ammonia; Subject 3004): 75.0 µmol/L
Venous ammonia TN-AUC (venous ammonia; Subject 3004): 38.4 µmol/L
Venous ammonia Cmaxss (venous ammonia; Subject 5001): 57.0 µmol/L
Venous ammonia TN-AUC (venous ammonia; Subject 5001): 35.5 µmol/L
Venous ammonia Cmaxss (venous ammonia; Subject 5002): 75.2 µmol/L
Venous ammonia TN-AUC (venous ammonia; Subject 5002): 39.1 µmol/L
Mean percentage of normal ammonia values (venous ammonia; UCD patients): 83%
Peak venous ammonia concentration (venous ammonia; UCD patients): 56.3 µmol/L
Venous ammonia mean TN-AUC (venous ammonia; UCD patients): 26.1 µmol/L
Ammonia level reached in patients above about 40 μmol/L on sodium PBA (venous ammonia; UCD patients, equimolar dosages, FIG. 12): below 40 μmol/L
TN-AUC (NH3) (venous ammonia; [12]): 26.1 µM
NH3: Total AUC (venous ammonia; UCD patients): 26.1 ± 10.3
NH3 exposure: DAY (hours 6-12) (venous ammonia; UCD patients): 32.9
NH3 exposure: NIGHT (hours 12-24) (venous ammonia; UCD patients): 21.3
NH3 Cmax (venous ammonia; UCD patients): 56.3 ± 27.9
Peak venous ammonia, lowering versus sodium PBA (venous ammonia; [13]): ~29%
Venous ammonia TN-AUC, lowering versus sodium PBA (venous ammonia; [13]): ~31%
Adverse effects, number of subjects reporting [3]: 5
Adverse effects, total number reported [3]: 15
Intact HPN-100 in blood samples ([4]; UCD patients, all blood samples): either not detectable or below the limits of quantitation
Indications of toxicity ([6]; at doses equimolar to the approved PBA dosage of 20 g/day): no indications of toxicity
Dietary protein whose waste nitrogen is eliminated per gram of drug per day ([6]; given 60-75% conversion rate): ~1.3 grams
Effect on creatinine levels ([6]; human, in vivo): little to no effect
Relationship between dose and PAGN output ([6]; up to doses of 17.4 mL): linear relationship

PBA AUC24 [8]: 542.6 µg·h/mL
PBA Cmax [8]: 221.0 µg/mL
PBA Tmax [8]: 54 min
PBA T½ [8]: 42 min
Absorption rate constant [9]: 1.34 h⁻¹
Fraction of PBA converted pre-systemically (to PAA and PAGN) [9]: 1%
Urinary excretion of PAGN [10]: 4905 ± 1414 mg
AUC (PBA) [4, 12]: 739 (49) μg-hr/mL
PBA AUC24 [4, 14]: 739.0 µg·h/mL
PBA Cmax [4, 14]: 141.0 µg/mL
PBA Tmax [4, 14]: 126 min
PAA in plasma Cmaxss [4, 15]: 53.0 µg/mL
PAA in plasma Cminss [4, 15]: 3.56 µg/mL
PAGN in plasma Cmaxss [4, 15]: 83.3 µg/mL
PAGN in plasma Cminss [4, 15]: 16.8 µg/mL
PBA in plasma AUC0-24 [4, 15]: 739 µg·h/mL
PBA in plasma Cmaxss [4, 15]: 141 µg/mL
PBA in plasma Cminss [4, 15]: 0.588 µg/mL
Unchanged PBA as share of the administered dosage ([5]; excreted): 48%
PAGN as share of the administered radio labeled dose ([5]; urine): 23%
Urine collection interval with highest PAGN output ([7]; 24 hour pattern): 6 to 12 h
Conversion into urinary PAGN ([7]; average): ~60%
PAGN excretion [7]: Comparable
Mean PAGN amount excreted, 0-6 hours ([7]; urine): 2,452,838 μg
Mean PAGN amount excreted, 0-12 hours ([7]; urine): 4,859,121 μg
Mean PAGN amount excreted, 12-24 hours ([7]; urine): 4,645,447 μg
SMILES: O=C([O-])CCCc1ccccc1.[Na+] [Sodium PBA, sodium phenylbutyrate]
Venous ammonia Cmaxss, Mean (venous ammonia): 79.1 µmol/L
Venous ammonia Cmaxss, Median (venous ammonia): 83.6 µmol/L
Venous ammonia TN-AUC, Mean (venous ammonia): 38.4 µmol/L
Venous ammonia TN-AUC, Median (venous ammonia): 36.8 µmol/L
Venous ammonia Cmaxss (venous ammonia; Subject 1001): 29.0 µmol/L
Venous ammonia TN-AUC (venous ammonia; Subject 1001): 16.47 µmol/L
Venous ammonia Cmaxss (venous ammonia; Subject 1002): 31.0 µmol/L
Venous ammonia TN-AUC (venous ammonia; Subject 1002): 20.9 µmol/L
Venous ammonia Cmaxss (venous ammonia; Subject 1004): 85.0 µmol/L
Venous ammonia TN-AUC (venous ammonia; Subject 1004): 46.8 µmol/L
Venous ammonia Cmaxss (venous ammonia; Subject 1006): 150 µmol/L
Venous ammonia TN-AUC (venous ammonia; Subject 1006): 71.5 µmol/L
Venous ammonia Cmaxss (venous ammonia; Subject 2001): 88.0 µmol/L
Venous ammonia TN-AUC (venous ammonia; Subject 2001): 52.1 µmol/L
Venous ammonia Cmaxss (venous ammonia; Subject 2003): 31.0 µmol/L
Venous ammonia TN-AUC (venous ammonia; Subject 2003): 17.5 µmol/L
Venous ammonia Cmaxss (venous ammonia; Subject 3002): 108 µmol/L
Venous ammonia TN-AUC (venous ammonia; Subject 3002): 22.3 µmol/L
Venous ammonia Cmaxss (venous ammonia; Subject 3004): 115 µmol/L
Venous ammonia TN-AUC (venous ammonia; Subject 3004): 62.9 µmol/L
Venous ammonia Cmaxss (venous ammonia; Subject 5001): 82.2 µmol/L
Venous ammonia TN-AUC (venous ammonia; Subject 5001): 35.8 µmol/L
Venous ammonia Cmaxss (venous ammonia; Subject 5002): 72.2 µmol/L
Venous ammonia TN-AUC (venous ammonia; Subject 5002): 37.7 µmol/L
Mean percentage of normal ammonia values (venous ammonia; UCD patients): 58%
Peak venous ammonia concentration (venous ammonia; UCD patients): 79.1 µmol/L
Venous ammonia mean TN-AUC (venous ammonia; UCD patients): 38.4 µmol/L
TN-AUC (NH3) (venous ammonia; [12]): 38.4 µM
NH3: Total AUC (venous ammonia; UCD patients): 38.4 ± 19.6
NH3 exposure: DAY (hours 6-12) (venous ammonia; UCD patients): 37.1
NH3 exposure: NIGHT (hours 12-24) (venous ammonia; UCD patients): 36.3
NH3 Cmax (venous ammonia; UCD patients): 79.1 ± 40.1
Fraction excreted in the urine as PAGN [11]: 80-90%
Adverse effects, number of subjects reporting [3]: 7
Adverse effects, total number reported [3]: 21
Serious adverse effects [3]: 2 (symptomatic
Serious adverse effects ([3]; listed as PBA): two subjects
Conversion into urinary PAGN, overall efficiency on average ([6]; oral, typical/average across clinical studies): 60-75%
